According to PubChem BioAssay AID2060903 (Molecular Pharmacology Branch, DTP, NCI, 2025):

Test system: 377384-186-R-J1-PDC complex spheroid viability
Test: Anticancer human tumor 377384-186-R-J1-PDC patient-derived pancreatic carcinoma cell line growth inhibition [RAS]
Settings: for IC50: curve of first compound; for viability, T/C: stronger effect = lower value
Summary of the method: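 Tumour cells grown as complex spheroids with HUVEC endothelial cells and mesenchymal stem cells, treated with RAS pathway inhibitor combinations. Each agent spans half-log steps from near clinical Cmax, or 10 microM where Cmax is unknown.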

[1] = second compound 0.0316 µM, first compound 0.0316 µM
[2] = second compound 0.0316 µM, first compound 0.1 µM
[3] = second compound 0.0316 µM, first compound 0.316 µM
[4] = second compound 0.0316 µM, first compound 1 µM
[5] = second compound 0.1 µM, first compound 0.0316 µM
[6] = second compound 0.1 µM, first compound 0.1 µM
[7] = second compound 0.1 µM, first compound 0.316 µM
[8] = second compound 0.1 µM, first compound 1 µM
[9] = second compound 0.316 µM, first compound 0.0316 µM
[10] = second compound 0.316 µM, first compound 0.1 µM
[11] = second compound 0.316 µM, first compound 0.316 µM
[12] = second compound 0.316 µM, first compound 1 µM
[13] = second compound 1 µM, first compound 0.0316 µM
[14] = second compound 1 µM, first compound 0.1 µM
[15] = second compound 1 µM, first compound 0.316 µM
[16] = second compound 1 µM, first compound 1 µM
[17] = second compound 3.16 µM, first compound 0.0316 µM
[18] = second compound 3.16 µM, first compound 0.1 µM
[19] = second compound 3.16 µM, first compound 0.316 µM
[20] = second compound 3.16 µM, first compound 1 µM
[21] = second compound 10 µM, first compound 0.0316 µM
[22] = second compound 10 µM, first compound 0.1 µM
[23] = second compound 10 µM, first compound 0.316 µM
[24] = second compound 10 µM, first compound 1 µM
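Note: spheroids exposed to compounds for seven days before readout.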

With `CCC(CC)c1cc(NC2CCC(N)C2)n2nccc2n1` (centres undefined) + C#Cc1c(F)ccc2cc(O)cc(-c3ncc4c(N5CC6CCC(C5)N6)nc(OCC56CCCN5CC(F)C6)nc4c3F)c12 the IC50 (second compound 0.0316 µM) was under 31.6 nM, the IC50 (second compound 0.1 µM) was under 31.6 nM and the IC50 (second compound 0.316 µM) was under 31.6 nM. The IC50 (second compound 1 µM) was under 31.6 nM, the IC50 (second compound 3.16 µM) was under 31.6 nM and the IC50 (second compound 10 µM) was under 31.6 nM. It also gave a viability, T/C [1] of 27.3%, a viability, T/C [2] of 24.2% and a viability, T/C [3] of 22.7%. It also gave a viability, T/C [4] of 16%, a viability, T/C (second compound 0.0316 µM, first compound 3.16 µM) of 1.58% and a viability, T/C (second compound 0.0316 µM, first compound 10 µM) of 5.35%. For the same molecule, the viability, T/C [5] was 10.8%, the viability, T/C [6] was 12.2% and the viability, T/C [7] was 7.8%. For the same molecule, the viability, T/C [8] was 9.56%, the viability, T/C (second compound 0.1 µM, first compound 3.16 µM) was 1.88% and the viability, T/C (second compound 0.1 µM, first compound 10 µM) was 5.23%. The viability, T/C [9] was 5.57%, the viability, T/C [10] was 5.89% and the viability, T/C [11] was 4.79%. It also gave a viability, T/C [12] of 4.23%, a viability, T/C (second compound 0.316 µM, first compound 3.16 µM) of 1.7% and a viability, T/C (second compound 0.316 µM, first compound 10 µM) of 5.13%. The viability, T/C [13] was 3.15%, the viability, T/C [14] was 3.52% and the viability, T/C [15] was 2.78%. It also gave a viability, T/C [16] of 3.71%, a viability, T/C (second compound 1 µM, first compound 3.16 µM) of 2.1% and a viability, T/C (second compound 1 µM, first compound 10 µM) of 6.67%. The viability, T/C [17] was 2.7%, the viability, T/C [18] was 2.53% and the viability, T/C [19] was 2.14%. It also gave a viability, T/C [20] of 2.51%, a viability, T/C (second compound 3.16 µM, first compound 3.16 µM) of 1.88% and a viability, T/C (second compound 3.16 µM, first compound 10 µM) of 6.5%. For the same molecule, the viability, T/C [21] was 1.53%, the viability, T/C [22] was 1.24% and the viability, T/C [23] was 1.12%. The viability, T/C [24] was 1.66%, the viability, T/C (second compound 10 µM, first compound 3.16 µM) was 1.33% and the viability, T/C (second compound 10 µM, first compound 10 µM) was 3.5%.
With `C=CC(=O)Nc1cc(Nc2nccc(-c3cn(C)c4ccccc34)n2)c(OC)cc1N(C)CCN(C)C` + C#Cc1c(F)ccc2cc(O)cc(-c3ncc4c(N5CC6CCC(C5)N6)nc(OCC56CCCN5CC(F)C6)nc4c3F)c12 the IC50 (second compound 0.0316 µM) was under 3.16 nM, the IC50 (second compound 0.1 µM) was under 3.16 nM and the IC50 (second compound 0.316 µM) was under 3.16 nM. For the same molecule, the IC50 (second compound 1 µM) was under 3.16 nM, the IC50 (second compound 3.16 µM) was under 3.16 nM and the IC50 (second compound 10 µM) was under 3.16 nM. For the same molecule, the viability, T/C (second compound 0.0316 µM, first compound 0.00316 µM) was 23.5%, the viability, T/C (second compound 0.0316 µM, first compound 0.01 µM) was 20.6% and the viability, T/C [1] was 15.2%. The viability, T/C [2] was 11.2%, the viability, T/C [3] was 3.98% and the viability, T/C [4] was 2.32%. The viability, T/C (second compound 0.1 µM, first compound 0.00316 µM) was 11.5%, the viability, T/C (second compound 0.1 µM, first compound 0.01 µM) was 8.96% and the viability, T/C [5] was 5.18%. The viability, T/C [6] was 3.75%, the viability, T/C [7] was 2.22% and the viability, T/C [8] was 2.24%. For the same molecule, the viability, T/C (second compound 0.316 µM, first compound 0.00316 µM) was 8.47%, the viability, T/C (second compound 0.316 µM, first compound 0.01 µM) was 5.04% and the viability, T/C [9] was 3.96%. For the same molecule, the viability, T/C [10] was 2.43%, the viability, T/C [11] was 1.28% and the viability, T/C [12] was 1.33%. For the same molecule, the viability, T/C (second compound 1 µM, first compound 0.00316 µM) was 3.67%, the viability, T/C (second compound 1 µM, first compound 0.01 µM) was 2.76% and the viability, T/C [13] was 2.37%. For the same molecule, the viability, T/C [14] was 1.47%, the viability, T/C [15] was 1.51% and the viability, T/C [16] was 1.43%. For the same molecule, the viability, T/C (second compound 3.16 µM, first compound 0.00316 µM) was 1.79%, the viability, T/C (second compound 3.16 µM, first compound 0.01 µM) was 1.63% and the viability, T/C [17] was 1.82%. For the same molecule, the viability, T/C [18] was 1.41%, the viability, T/C [19] was 1.37% and the viability, T/C [20] was 1.25%. It also gave a viability, T/C (second compound 10 µM, first compound 0.00316 µM) of 1.63%, a viability, T/C (second compound 10 µM, first compound 0.01 µM) of 1.14% and a viability, T/C [21] of 1.21%. It also gave a viability, T/C [22] of 0.66%, a viability, T/C [23] of 1.89% and a viability, T/C [24] of 0.82%.
